Assay results from patent US12502434B2, “Compound comprising EZH2 inhibitor and E3 ligase binder and pharmaceutical composition for preventing or treating EZH2-associated disease comprising same as active ingredient” (DAEGU-GYEONGBUK MEDICAL INNOVATION FOUNDATION, priority 2019, dated 2025).
Where two headings read alike, the source gives them in different places.

Target: T1, EZH2 protein in LS174T cells (Homo sapiens, UniProt Q15910)
T1 construct: endogenous in cells; host or cells: LS174T
Experiment: Proteolytic effect in colorectal cancer cells (Western blotting)
Type: cell-based
Procedure: After 72 hours of the treatment, the cells were collected and lysed using RIPA buffer (50 mM Tris, pH 7.5, 150 mM NaCl, 1% Triton X-100, 0.1% SDS, […], 0.5% deoxycholate, and protease inhibitor cocktail), followed by sonication (30 sec on/30 sec off, 5 cycles) to prepare a cell lysate.

[1] = EZH2 protein, LS174T cells, 1 μM, 72 hours
[2] = EZH2 protein, LS174T cells, 1 uM, 72 hours, Western blotting

T1 sequence (Q15910 whole entry): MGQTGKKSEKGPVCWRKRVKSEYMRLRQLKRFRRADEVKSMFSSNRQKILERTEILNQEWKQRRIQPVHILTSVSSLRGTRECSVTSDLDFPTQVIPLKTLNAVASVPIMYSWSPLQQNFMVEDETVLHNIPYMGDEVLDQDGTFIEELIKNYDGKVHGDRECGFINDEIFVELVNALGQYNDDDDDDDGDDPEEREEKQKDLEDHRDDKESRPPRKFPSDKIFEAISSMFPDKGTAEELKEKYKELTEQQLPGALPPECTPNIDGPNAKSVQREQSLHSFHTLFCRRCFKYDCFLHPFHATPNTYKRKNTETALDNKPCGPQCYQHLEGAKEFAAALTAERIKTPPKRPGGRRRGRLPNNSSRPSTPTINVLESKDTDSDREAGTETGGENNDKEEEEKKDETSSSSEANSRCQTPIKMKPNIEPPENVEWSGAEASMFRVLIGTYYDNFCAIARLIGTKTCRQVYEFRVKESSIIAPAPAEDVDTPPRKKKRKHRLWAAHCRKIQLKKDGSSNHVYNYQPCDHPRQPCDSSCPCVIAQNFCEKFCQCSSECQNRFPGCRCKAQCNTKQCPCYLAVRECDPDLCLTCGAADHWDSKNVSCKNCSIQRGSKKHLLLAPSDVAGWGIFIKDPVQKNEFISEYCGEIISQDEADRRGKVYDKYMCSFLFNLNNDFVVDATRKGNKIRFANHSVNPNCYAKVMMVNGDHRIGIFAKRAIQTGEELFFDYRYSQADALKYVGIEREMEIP
T1 sequence (O75530 whole entry partner): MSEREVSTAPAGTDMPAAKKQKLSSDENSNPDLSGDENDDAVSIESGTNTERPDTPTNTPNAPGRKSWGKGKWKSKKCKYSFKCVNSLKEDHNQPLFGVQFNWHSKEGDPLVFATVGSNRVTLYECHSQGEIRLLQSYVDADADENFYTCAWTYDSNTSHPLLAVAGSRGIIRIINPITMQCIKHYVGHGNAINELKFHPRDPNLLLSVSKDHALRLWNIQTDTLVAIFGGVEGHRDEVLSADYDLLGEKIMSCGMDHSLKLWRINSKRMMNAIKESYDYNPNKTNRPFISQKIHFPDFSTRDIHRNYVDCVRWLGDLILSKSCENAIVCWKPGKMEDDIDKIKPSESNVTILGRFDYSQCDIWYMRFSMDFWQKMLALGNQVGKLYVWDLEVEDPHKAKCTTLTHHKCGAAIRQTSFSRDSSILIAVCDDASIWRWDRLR
T1 sequence (Q15022 whole entry partner): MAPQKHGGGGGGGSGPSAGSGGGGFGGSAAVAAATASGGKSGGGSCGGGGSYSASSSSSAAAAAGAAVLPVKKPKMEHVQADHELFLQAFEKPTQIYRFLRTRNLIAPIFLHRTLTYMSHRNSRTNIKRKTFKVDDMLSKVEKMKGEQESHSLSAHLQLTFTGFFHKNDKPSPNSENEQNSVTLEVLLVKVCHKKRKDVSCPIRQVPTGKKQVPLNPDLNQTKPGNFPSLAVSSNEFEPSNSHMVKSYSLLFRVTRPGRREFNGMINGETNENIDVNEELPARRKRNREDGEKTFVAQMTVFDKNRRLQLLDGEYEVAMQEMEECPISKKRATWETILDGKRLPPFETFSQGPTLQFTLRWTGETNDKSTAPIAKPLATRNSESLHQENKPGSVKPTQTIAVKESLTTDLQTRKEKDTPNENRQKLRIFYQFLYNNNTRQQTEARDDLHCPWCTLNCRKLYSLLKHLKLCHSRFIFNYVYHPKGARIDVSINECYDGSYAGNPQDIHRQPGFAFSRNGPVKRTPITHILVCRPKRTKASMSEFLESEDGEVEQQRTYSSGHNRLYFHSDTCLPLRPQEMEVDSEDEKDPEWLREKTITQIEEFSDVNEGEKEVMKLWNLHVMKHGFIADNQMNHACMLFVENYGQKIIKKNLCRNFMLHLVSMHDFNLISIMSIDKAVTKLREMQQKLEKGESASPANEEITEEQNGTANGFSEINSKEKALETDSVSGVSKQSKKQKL

SMILES	%, degradation at 1 uM	Grade (percent value of the protein degradation when treated with 1 μM)	Grade (percent value of the protein degradation when treated with 1 μM) [1]	%, degradation at 1 uM [2]
CCN(c1cc(-c2ccc(CN3CCN(CC(=O)NCCCCCCNc4cccc5c4CN(C4CCC(=O)NC4=O)C5=O)CC3)cc2)cc(C(=O)NCc2c(C)cc(C)[nH]c2=O)c1C)C1CCOCC1 (centres unmarked) [Example 20, N-((4,6-dimethyl-2-oxo-1,2-dihydropyridine-3-yl)methyl)-4′-((4-(2-((6-((2-(2,6-dioxopiperidine-3-yl)-1-oxoisoindoline-4-yl)amino)hexyl)amino)-2-oxoethyl)piperazine-1-yl)methyl)-5-(ethyl(tetrahydro-2H-pyran-4-yl)amino)-4-methyl[1,1′-biphenyl]-3-carboxamide]	58.73%	B (key: A: >75%; B: 50-75%; C: 25-50%; D: <25%)	–	–
CCN(c1cc(-c2ccc(CN3CCN(CC(=O)NCCCOCCCOCC(=O)N[C@H](C(=O)N4C[C@H](O)C[C@H]4C(=O)NCc4ccc(-c5scnc5C)cc4)C(C)(C)C)CC3)cc2)cc(C(=O)NCc2c(C)cc(C)[nH]c2=O)c1C)C1CCOCC1 [Example 42, (2S,4R)-1-((S)-2-(tert-butyl)-16-(4-((3′-(((4,6-dimethyl-2-oxo-1,2-dihydropyridine-3-yl)methyl)carbamoyl)-5′-(ethyl(tetrahydro-2H-pyran-4-yl)amino)-4′-methyl-[1,1′-biphenyl]-4-yl)methyl)piperazine-1-yl)-4,15-dioxo-6,10-dioxa-3,14-diazahexadecanoyl)-4-hydroxy-N-(4-(4-methylthiazole-5-yl)benzyl)pyrrolidine-2-carboxamide]	0%	D (key: A: >75%; B: 50-75%; C: 25-50%; D: <25%)	–	–
CCN(c1cc(-c2ccc(CN3CCN(CCCCCCCOc4cccc5c4C(=O)N(C4CCC(=O)NC4=O)C5=O)CC3)cc2)cc(C(=O)NCc2c(C)cc(C)[nH]c2=O)c1C)C1CCOCC1 (centres unmarked) [Example 10, N-((4,6-dimethyl-2-oxo-1,2-dihydropyridine-3-yl)methyl)-4′-((4-(7-((2-(2,6-dioxopiperidine-3-yl)-1,3-dioxoisoindoline-4-yl)oxy)heptyl)piperazine-1-yl)methyl)-5-(ethyl(tetrahydro-2H-pyran-4-yl)amino)-4-methyl-[1,1′-biphenyl]-3-carboxamide]	–	–	D (<25%)	0%
CCN(c1cc(-c2ccc(CN3CCN(CC(=O)NCCCCCOCCCOCCC(=O)N[C@H](C(=O)N4C[C@H](O)C[C@H]4C(=O)NCc4ccc(-c5scnc5C)cc4)C(C)(C)C)CC3)cc2)cc(C(=O)NCc2c(C)cc(C)[nH]c2=O)c1C)C1CCOCC1 [Example 43, (2S,4R)-1-((S)-2-(tert-butyl)-19-(4-((3′-(((4,6-dimethyl-2-oxo-1,2-dihydropyridine-3-yl)methyl)carbamoyl)-5′-(ethyl(tetrahydro-2H-pyran-4-yl)amino)-4′-methyl-[1,1′-biphenyl]-4-yl)methyl)piperazine-1-yl)-4,18-dioxo-7,11-dioxa-3,17-diazanonadecanoyl)-4-hydroxy-N-(4-(4-methylthiazole-5-yl)benzyl)pyrrolidine-2-carboxamide]	–	–	B (50-75%)	67.12%
CCN(c1cc(-c2ccc(CN3CCN(C(=O)c4cn(CCCNc5cccc6c5C(=O)N(C5CCC(=O)NC5=O)C6=O)nn4)CC3)cc2)cc(C(=O)NCc2c(C)cc(C)[nH]c2=O)c1C)C1CCOCC1 (centres unmarked) [Example 25, N-((4,6-dimethyl-2-oxo-1,2-dihydropyridine-3-yl)methyl)-4′-((4-(1-(3-((2-(2,6-dioxopiperidine-3-yl)-1,3-dioxoisoindoline-4-yl)amino)propyl)-1H-1,2,3-triazole-4-carbonyl)piperazine-1-yl)methyl)-5-(ethyl(tetrahydro-2H-pyran-4-yl)amino)-4-methyl[1,1′-biphenyl]-3-carboxamide]	–	–	D (<25%)	7.41%
CCN(c1cc(-c2ccc(CN3CCN(CC(=O)N4CCC5(CCN(CCCCNc6cccc7c6C(=O)N(C6CCC(=O)NC6=O)C7=O)C5)C4)CC3)cc2)cc(C(=O)NCc2c(C)cc(C)[nH]c2=O)c1C)C1CCOCC1 (centres unmarked) [Example 34, N-((4,6-dimethyl-2-oxo-1,2-dihydropyridine-3-yl)methyl)-4′-((4-(2-(7-(4-((2-(2,6-dioxopiperidine-3-yl)-1,3-dioxoisoindoline-4-yl)amino)butyl)-2,7-diazaspiro[4.4]nonane-2-yl)-2-oxoethyl)piperazine-1-yl)methyl)-5-(ethyl(tetrahydro-2H-pyran-4-yl)amino)-4-methyl-[1,1′-biphenyl]-3-carboxamide]	–	–	D (<25%)	0%
CCN(c1cc(-c2ccc(CN3CCN(CC(=O)NCCN4CCN(CCNc5cccc6c5C(=O)N(C5CCC(=O)NC5=O)C6=O)CC4)CC3)cc2)cc(C(=O)NCc2c(C)cc(C)[nH]c2=O)c1C)C1CCOCC1 (centres unmarked) [Example 29, N-((4,6-dimethyl-2-oxo-1,2-dihydropyridine-3-yl)methyl)-4′-((4-(2-((2-(4-(2-((2-(2,6-dioxopiperidine-3-yl)-1,3-dioxoisoindoline-4-yl)amino)ethyl)piperazine-1-yl)ethyl)amino)-2-oxoethyl)piperazine-1-yl)methyl)-5-(ethyl(tetrahydro-2H-pyran-4-yl)amino)-4-methyl-[1,1′-biphenyl]-3-carboxamide]	–	–	D (<25%)	0%
CCN(c1cc(-c2ccc(CN3CCN(CCCCCNc4cccc5c4C(=O)N(C4CCC(=O)NC4=O)C5=O)CC3)cc2)cc(C(=O)NCc2c(C)cc(C)[nH]c2=O)c1C)C1CCOCC1 (centres unmarked) [Example 2, N-((4,6-dimethyl-2-oxo-1,2-dihydropyridine-3-yl)methyl)-4′-((4-(5-((2-(2,6-dioxopiperidine-3-yl)-1,3-dioxoisoindoline-4-yl)amino)pentyl)piperazine-1-yl)methyl)-5-(ethyl(tetrahydro-2H-pyran-4-yl)amino)-4-methyl-[1,1′-biphenyl]-3-carboxamide]	–	–	D (<25%)	18.10%
CCN(c1cc(-c2ccc(CN3CCN(CC(=O)NCCCCCCNC(=O)[C@H](CC(C)C)NC(=O)[C@@H](O)[C@H](N)Cc4ccccc4)CC3)cc2)cc(C(=O)NCc2c(C)cc(C)[nH]c2=O)c1C)C1CCOCC1 [Example 50, 4′-((4-(2-((6-((S)-2-((2S,3R)-3-amino-2-hydroxy-4-phenylbutanamido)-4-methylpentanamido)hexyl)amino)-2-oxoethyl)piperazine-1-yl)methyl)-N-((4,6-dimethyl-2-oxo-1,2-dihydropyridine-3-yl)methyl)-5-(ethyl(tetrahydro-2H-pyran-4-yl)amino)-4-methyl-[1,1′-biphenyl]-3-carboxamide]	0%	D (key: A: >75%; B: 50-75%; C: 25-50%; D: <25%)	–	–
CCN(c1cc(-c2ccc(CN3CCN(C(=O)CNCCCCNc4cccc5c4C(=O)N(C4CCC(=O)NC4=O)C5=O)CC3)cc2)cc(C(=O)NCc2c(C)cc(C)[nH]c2=O)c1C)C1CCOCC1 (centres unmarked) [Example 13, N-((4,6-dimethyl-2-oxo-1,2-dihydropyridine-3-yl)methyl)-4′-((4-((4-((2-(2,6-dioxopiperidine-3-yl)-1,3-dioxoisoindoline-4-yl)amino)butyl)glycyl)piperazine-1-yl)methyl)-5-(ethyl(tetrahydro-2H-pyran-4-yl)amino)-4-methyl-[1,1′-biphenyl]-3-carboxamide]	–	–	C (25-50%)	29.35%
CCN(c1cc(-c2ccc(CN3CCN(CC(=O)NCCCCCCOc4cccc5c4C(=O)N(C4CCC(=O)NC4=O)C5=O)CC3)cc2)cc(C(=O)NCc2c(C)cc(C)[nH]c2=O)c1C)C1CCOCC1 (centres unmarked) [Example 8, N-((4,6-dimethyl-2-oxo-1,2-dihydropyridine-3-yl)methyl)-4′-((4-(2-((6-((2-(2,6-dioxopiperidine-3-yl)-1,3-dioxoisoindoline-4-yl)oxy)hexyl)amino)-2-oxoethyl)piperazine-1-yl)methyl)-5-(ethyl(tetrahydro-2H-pyran-4-yl)amino)-4-methyl-[1,1′-biphenyl]-3-carboxamide]	–	–	D (<25%)	2.91%
CCN(c1cc(-c2ccc(CN3CCN(CC(=O)N4CC5(CN(CCNc6cccc7c6C(=O)N(C6CCC(=O)NC6=O)C7=O)C5)C4)CC3)cc2)cc(C(=O)NCc2c(C)cc(C)[nH]c2=O)c1C)C1CCOCC1 (centres unmarked) [Example 36, N-((4,6-dimethyl-2-oxo-1,2-dihydropyridine-3-yl)methyl)-4′-((4-(2-(6-(2-((2-(2,6-dioxopiperidine-3-yl)-1,3-dioxoisoindoline-4-yl)amino)ethyl)-2,6-diazaspiro[3.3]heptane-2-yl)-2-oxoethyl)piperazine-1-yl)methyl)-5-(ethyl(tetrahydro-2H-pyran-4-yl)amino)-4-methyl-[1,1′-biphenyl]-3-carboxamide]	–	–	D (<25%)	0%
CCN(c1cc(-c2ccc(CN3CCN(CC(=O)NCCOCCOCCOCCC(=O)NCCNc4cccc5c4C(=O)N(C4CCC(=O)NC4=O)C5=O)CC3)cc2)cc(C(=O)NCc2c(C)cc(C)[nH]c2=O)c1C)C1CCOCC1 (centres unmarked) [Example 4, N-((4,6-dimethyl-2-oxo-1,2-dihydropyridine-3-yl)methyl)-4′-((4-(18-((2-(2,6-dioxopiperidine-3-yl)-1,3-dioxoisoindoline-4-yl)amino)-2,15-dioxo-6,9,12-trioxa-3,16-diazaoctadecyl)piperazine-1-yl)methyl)-5-(ethyl(tetrahydro-2H-pyran-4-yl)amino)-4-methyl-[1,1′-biphenyl]-3-carboxamide]	–	–	D (<25%)	0%
